Each block holds one compound with its values, some of them ahead of it.
Tests used:
[1] = test system: 18 month MSCs; test: Transwell migration of 18 month MSCs; assay type: cell-based, mouse; details: 6 hours treatment
Text: The data shown are averages of quadruplicate wells. Bar graph represents RFU of migrated cells normalized to vehicle control group +/−SEM. *p<0.05 verse control group.
(§1) Low passage MSCs from 18 and 24 month old adult male C57BL/6 mice, procured from the GHSU Institute of Regenerative and Reparative Medicine Stem Cell Core (IRRM-SSC) were used. This age range was chosen based on associated changes in bone formation and mass in the comparatively aged mice (Zhang, et al., Journal of Bone and Mineral Research, 23:1118-1128 (2008)).
(§2) Recombinant active SDF-1β (i.e. full length amino acids 1-72; 100 ng/mL; Peprotech), Recombinant Mouse DPPIV/CD26 enzyme (0.01 μg; R&D) cleaved (Cl.) SDF-1β (aa3-72; 100 ng/mL) (Christopherson, et al., Blood, 101:4680-4686 (2003)), and AMD3100 (400 μM; R&D), an antagonist of SDF-1/CXCR4 axis (Liu, et al., Protein & Cell, 2:845-854 (2011)).
The migration efficiency of 18 month MSCs in response to SDF-1β, its cleaved form and AMD3100, as a positive control, was tested using a transwell migration system.

[2] = test system: Smad1/5/8-mediated BMP-2 signal transduction; test: BMP receptor signaling by Western blot ((p)Erk1/2, (p)Smad1/5/8) in BMSCs; assay type: cell-based, mouse; details: for effect of pretreatment on SDF-1β potentiation of BMP-2 signal transduction: pretreatment 4 h, 600 μM AMD3100 or 50 μM U0126, before 300 ng/ml BMP-2
Text: FIGS. 17A and 17D are images of autoradiograms of western blots detecting pErk 1/2, Erk1/2, pSmad 1/5/8, Smad 1/5/8, and beta-actin (loading control) of isolated BMSC cells: Tet-Off-SDF-1β with and without Dox, BMP2, AMD3100, U0126, and combinations thereof (FIG. 17A) and Tet-Off-EV controls with and without Dox, BMP2, AMD3100, U0126, and combinations thereof (FIG. 17D). FIGS. 17B-C and 17E-F are bar graphs showing densitometry quantification of immunoreactive bands of FIGS. 17A and 17D as a ratio of pErk 1/2 to Erk1/2 (17B and 17E) and pSmad 1/5/8 to Smad 1/5/8 (17C and 17F).
(§3) BMP receptor signaling was assessed by Western blot. Serum-starved BMSCs were pretreated with 600 μM AMD3100, 50 μM U0126, or vehicle for 4 h prior to stimulation with 300 ng/ml BMP-2 for 30 min. Whole cell lysates were subjected to SDS-PAGE, electroblotted onto PVDF membranes, and probed for (p)Erk1/2 and (p)Smad1/5/8. Transwell migration assays were performed using conditioned media from genetically engineered BMSCs in lower chambers. Serum-starved Jurkat cells or BMSCs at 5.0-8.0×10^5 cells/ml in upper chambers were allowed to migrate across the 8-μm membranes for 4-8 h prior to quantifying total DNA with CyQuant GR dye at 485/535 nm. Apoptosis was induced with 1.0 mM H2O2 for 6 h. Cell death was quantified by trypan blue staining and Western blot analysis of cleaved caspase-3 and PARP. Autophagy was evaluated by Western blot for LC3-II.

[3] = target: CXCR4 (Mus musculus, UniProt P70658); details: BM supernatant of 3 or 18 month old mice normalized to 150 pg/ml SDF-1; both age groups
Method: BM supernatant from 3 or 18 month old mice were normalized by dilution with saline to yield 150 pg/ml of SDF-1 as determined by ELISA. The normalized BM supernatant was added to the lower chamber and the cells (either pretreated with AMD3100 or not) were permitted to migrate for 6 hours.

[4] = test system: 18 month MSCs; test: Osteogenic differentiation of MSCs, Alizarin red staining for calcium deposition; assay type: cell-based, mouse; details: for increase of Alizarin red staining for calcium compared to control cells: osteogenic differentiation of MSCs, terminal stages
Text: as §1
To determine the influence of modulating SDF-1 signaling in osteogenic differentiation of 18 month MSCs, the calcium deposition at the terminal stages of differentiation was measured. […] However, the SDF-1β stimulated calcium-staining was reduced by ˜8 fold (FIG. 9B) with co-treatment with C1.SDF-10.

[5] = test system: SDF-1; test: qRTPCR of SDF1β, CXCR4 and LC3B mRNA in MSCs after metformin treatment; assay type: cell-based, mouse; details: MSCs treated with metformin compared to controls
[6] = test system: LC3B, p62, pERK; test: Western blot of LC3B, p62 and pERK in aged MSCs (autophagy and MAPK pathway); assay type: cell-based, mouse
Text: Low passage MSCs from 18 and 24 month old adult male C57BL/6 mice, procured from the GHSU Institute of Regenerative and Reparative Medicine Stem Cell Core (IRRM-SSC) were used.
Redistribution of LC3B from cytosol (18 kDa) to an autophagosome (16 kDa) is an indication of autophagy induction. P62, also known as sequestosome 1/SQSTM1, is a ubiquitously expressed protein, best characterized for selective autophagy, directly interacts with LC3B on the phagophore through the LC3-interacting region and then degraded.

[7] = test system: BMSCs; test: Cell viability after H2O2 treatment by trypan blue exclusion staining; assay type: cell-based, mouse; details: 1.0 mM H2O2 for 6 h; p<0.001
Text: BMSCs were transduced with retroviral Tet-Off expression vectors. The sequential protocol of retrovirus production, two-step infection, and selection to generate double-stable Tet-Off-SDF-1β BMSCs and Tet-Off-EV control BMSCs has been described previously (Herberg, et al., Tissue Eng Part A, 19:1-13 (2013)). In brief, 293GPG packaging cells (Ory, et al., Proc. Natl. Acad. Sci. USA, 93:11400-11406 (1996)) were transfected at passage 8 with retroviral Tet-Off expression vectors containing the SDF-1β coding sequence, or empty control (cat#632105) (Clontech Laboratories, Mountain View, Calif., USA). […]
The viability of BMSCs in response to H2O2 treatment was analyzed using standard trypan blue exclusion staining Cells were washed with PBS, lifted with trypsin/EDTA, and resuspended with normal growth medium. Following 1:5 dilution, BMSC suspensions were mixed with an equal volume of 0.4% trypan blue staining solution (cat#15250061) (Gibco, Invitrogen), and counted in 5 inner squares using a hemacytometer with cover slip (Hausser Scientific, Horsham, Pa., USA).
BMP receptor signaling was assessed by Western blot. […] Serum-starved Jurkat cells or BMSCs at 5.0-8.0×10^5 cells/ml in upper chambers were allowed to migrate across the 8-μm membranes for 4-8 h prior to quantifying total DNA with CyQuant GR dye at 485/535 nm. […] Autophagy was evaluated by Western blot for LC3-II.

[8] = test system: CXCR4-expressing Jurkat cells; test: Transwell migration toward conditioned media from genetically engineered BMSCs, Jurkat cells; assay type: cell-based; details: 4-8 h, p<0.01
Method: as §3

[9] = test system: BMSCs; test: Transwell migration toward conditioned media from genetically engineered BMSCs, BMSCs; assay type: cell-based, mouse; details: 4-8 h, p<0.01
Method: as §3

[10] = test system: AMPK-α1 and LC3B; test: qRTPCR of AMPK-α1 and LC3B mRNA in MSCs; assay type: cell-based, mouse; details: 24 month MSCs; 100 ng/ml for 48 hours
Method: FIG. 7 is bar graph showing the results of an assay measuring the level of AMPK-alpha1 and LC3B mRNA in 24 month MSCs control cells and cells treated with 100 ng/ml of active SDF-1β for 48 hours. *p<0.05 compared to control group.
as §1, §2

CXCR4, sequence (P70658 whole entry): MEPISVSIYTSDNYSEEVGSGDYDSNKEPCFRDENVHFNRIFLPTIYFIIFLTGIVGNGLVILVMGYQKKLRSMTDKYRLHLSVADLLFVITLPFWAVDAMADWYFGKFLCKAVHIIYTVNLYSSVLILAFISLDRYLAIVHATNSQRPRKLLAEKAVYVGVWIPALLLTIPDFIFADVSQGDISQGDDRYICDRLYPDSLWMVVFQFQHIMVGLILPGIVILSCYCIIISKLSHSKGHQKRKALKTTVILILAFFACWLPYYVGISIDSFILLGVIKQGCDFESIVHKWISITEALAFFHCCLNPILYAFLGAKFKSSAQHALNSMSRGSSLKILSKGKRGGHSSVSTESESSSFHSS

migration of MSCs toward BM supernatant after pretreatment of the cells [3]: blocked all migration
Compound: c1cc(CN2CCCNCCNCCCNCC2)ccc1CN1CCCNCCNCCCNCC1 [AMD3100]
migration of MSCs in transwell migration system relative to control [1]: suppressed | effect of pretreatment on SDF-1β potentiation of BMP-2 signal transduction [2]: abolished

Compound: c1cc(-c2cnn3cc(-c4ccc(OCCN5CCCCC5)cc4)cnc23)ccn1 [Compound C]
osteogenic differentiation of MSCs (Alizarin red staining) [4]: significantly reduced

Compound: N#CC(=C(/N)Sc1ccccc1N)/C(C#N)=C(\N)Sc1ccccc1N [U0126]
effect of pretreatment on SDF-1β potentiation of BMP-2 signal transduction [2]: abolished

Compound: CN(C)C(=N)N=C(N)N [metformin]
expression of endogenous SDF-1 [5]: increase expression of endogenous SDF-1 | increase of Alizarin red staining for calcium compared to control cells [4]: ~20 fold | LC3B and p62 levels on further incubation ([6]; 18 month and 24 month old MSCs, 24 or 48 h of metformin treatment): gradual reduction of LC3B and p62

Compound: SDF-1β: Recombinant active SDF-1β, full length amino acids 1-72 (Peprotech); in Example 9 overexpressed in engineered BMSCs
increase of Alizarin red staining for calcium compared to control cells [4]: ~20 fold | migration of MSCs in transwell migration system relative to control [1]: strong migrating potential | Smad1/5/8-mediated BMP-2 signal transduction via Erk1/2 phosphorylation ([2]; SDF-1β overexpressed in genetically engineered BMSCs, 300 ng/ml BMP-2 for 30 min, p<0.05): significantly potentiated | apoptosis-resistance in genetically engineered BMSCs [7]: significant apoptosis-resistance | LC3B and p62 levels on further incubation ([6]; 18 month MSCs, 24 or 48 h, 100 ng/mL): gradual disappearance of LC3B and p62 | effect on MAPK pathway and autophagy (LC3B distribution) ([6]; 18 month MSCs, six hours of treatment, 100 ng/mL): led to MAPK pathway activation and induced autophagy by distributing LC3B | migratory response of CXCR4-expressing Jurkat cells [8]: significantly promoted | migratory response of BMSCs [9]: significantly promoted | AMPK-α1 and LC3B mRNA (qRTPCR) [10]: regulated autophagy at transcriptional level

Source: patent US20140288010A1, “Compositions and Methods for Increasing Stem Cell Survival” (Georgia Regents Research Institute, Inc., priority 2013, published 2014)
